The target of one assay is T1, SMARCA4 (Homo sapiens, UniProt P51532).
T1 construct: SMARCA2/SMARCA4 protein degradation selectivity in MV4-11 cells; endogenous in cells; host or cells: MV4-11
The assay can be described thus: SMARCA4 Western blot degradation in MV4-11 cells. It is filed as cell-based. The note with it: 24 h; for Dmax: MV4-11, MV4-11 cells, read-out: SMARCA4 MSD MV411 degradation 24 h: average Dmax %; for DC50: MV4-11 cells, read-out: SMARCA4 MSD MV411 degradation 24 h: Mean external-Abs DC50. As for the experimental part:
Example 11. SMARCA2 and SMARCA4 Western Blot MV4-11 Degradation
Cells were seeded into 6-well plates (MV4-11:4×10^6 cells/well/1 ml) and 1 ml of 2× compound solution was added into the well to make the final concentration and the plates were mixed well and incubated for 24 hours (No cytotoxicity was observed). The cell were collected with media and spun at 3000 rpm for 5 minutes. The supernatant was aspirated and the well and the cells were washed with cold PBS once and combined for centrifugation again; the supernatant aspirated again. 200 uL pre-chilled RIPA lysis buffer (Boston BioProducts BP-115D) with protease/phosphatase inhibitor (Roche 05892791001/Roche 04906837001) was directly added into the tube to lyze the cells for 20 minutes on ice. The cell lysate were collected into EP tubes and spun at 13000 rpm for 20 minutes and 72 uL supernatant was transferred to a fresh EP tube containing 18 μL of 5× loading buffer (Beyotime Bio P0015) to make the loading samples. The samples were heated to 100° C. for 10 minutes and cooled to RT and microcentrifuged. 20 μL of samples were loaded onto SDS-PAGE gel (Novex, WG1402BOX) and the gel was run at 80 V for 20 minutes and 120 V for 1.5 hours. The samples were electrotransfer to a NC membrane using wet-transfer method with 250 mA for 2.5 hours. The membrane was blocked with LICOR blocking buffer (LI COR,927-50000) for 1 hour. The membrane was washed three times with TBST(CST #9997S), 5 minutes each. Incubation was performed with primary antibody prepared in blocking buffer with 0.1% Tween-20 (Solarbio, P8220) at 4° C. overnight (Anti-SMARCA2/BRM antibody (ab15597) 1:500; Anti-BRG1 antibody [EPR3912](ab108318) 1:1000; Rabbit anti-Bafl80 antibody [EPR15860](Abcam,ab196022) 1:1000; mouse anti-beta-Actin (8H10D10) (CST #3700) 1:10000). The membrane was washed three times with TBST, 5 minutes each. Incubation with secondary antibody was performed for 1 hour at RT (anti-rabbit IgG (Licor,926-32211) 1:5000; anti-mouse IgG (LI-COR, 926-68070) 1:5000). The membrane was washed three times with 5 minutes each and lastly the LiCOR was read.
The letter codes for SMARCA2/4 degradation potency (DC50) include: A (<1 nM), B (1-10 nM), C (>10-100 nM), and D (>100 nM). The letter codes for the percentage of SMARCA2/4 degradation after 24 hours (Dmax %) include: A (>90% degradation), B (>70-90% degradation), C (50-70% degradation), and D (<50% degradation). The letter codes of SMARCA2/4 selectivity include: A (>500 fold), B (>100-500 fold), C (10-100 fold), and D (<10 fold). Table 8. SMARCA2/4 Selectivity Results

The next assay deals with SMARCA2 (Homo sapiens, UniProt P51531). Description: SMARCA2 Western blot degradation in MV4-11 cells. It is filed as cell-based. Set-up: SMARCA2/SMARCA4 protein degradation selectivity in MV4-11 cells; endogenous in cells; host or cells: MV4-11. The following applies: for Dmax: MV4-11, MV4-11 cells, read-out: SMARCA2 MSD MV411 degradation 24 h: average Dmax %; for Dmax / DC50: 24 h; for DC50 / Selectivity in MV411: MV4-11 cells; for DC50: read-out: SMARCA2 MSD MV411 degradation 24 h: Mean external-Abs DC50; for Selectivity in MV411: SMARCA2/4 selectivity.
Chain of SMARCA2 (P51531 whole entry): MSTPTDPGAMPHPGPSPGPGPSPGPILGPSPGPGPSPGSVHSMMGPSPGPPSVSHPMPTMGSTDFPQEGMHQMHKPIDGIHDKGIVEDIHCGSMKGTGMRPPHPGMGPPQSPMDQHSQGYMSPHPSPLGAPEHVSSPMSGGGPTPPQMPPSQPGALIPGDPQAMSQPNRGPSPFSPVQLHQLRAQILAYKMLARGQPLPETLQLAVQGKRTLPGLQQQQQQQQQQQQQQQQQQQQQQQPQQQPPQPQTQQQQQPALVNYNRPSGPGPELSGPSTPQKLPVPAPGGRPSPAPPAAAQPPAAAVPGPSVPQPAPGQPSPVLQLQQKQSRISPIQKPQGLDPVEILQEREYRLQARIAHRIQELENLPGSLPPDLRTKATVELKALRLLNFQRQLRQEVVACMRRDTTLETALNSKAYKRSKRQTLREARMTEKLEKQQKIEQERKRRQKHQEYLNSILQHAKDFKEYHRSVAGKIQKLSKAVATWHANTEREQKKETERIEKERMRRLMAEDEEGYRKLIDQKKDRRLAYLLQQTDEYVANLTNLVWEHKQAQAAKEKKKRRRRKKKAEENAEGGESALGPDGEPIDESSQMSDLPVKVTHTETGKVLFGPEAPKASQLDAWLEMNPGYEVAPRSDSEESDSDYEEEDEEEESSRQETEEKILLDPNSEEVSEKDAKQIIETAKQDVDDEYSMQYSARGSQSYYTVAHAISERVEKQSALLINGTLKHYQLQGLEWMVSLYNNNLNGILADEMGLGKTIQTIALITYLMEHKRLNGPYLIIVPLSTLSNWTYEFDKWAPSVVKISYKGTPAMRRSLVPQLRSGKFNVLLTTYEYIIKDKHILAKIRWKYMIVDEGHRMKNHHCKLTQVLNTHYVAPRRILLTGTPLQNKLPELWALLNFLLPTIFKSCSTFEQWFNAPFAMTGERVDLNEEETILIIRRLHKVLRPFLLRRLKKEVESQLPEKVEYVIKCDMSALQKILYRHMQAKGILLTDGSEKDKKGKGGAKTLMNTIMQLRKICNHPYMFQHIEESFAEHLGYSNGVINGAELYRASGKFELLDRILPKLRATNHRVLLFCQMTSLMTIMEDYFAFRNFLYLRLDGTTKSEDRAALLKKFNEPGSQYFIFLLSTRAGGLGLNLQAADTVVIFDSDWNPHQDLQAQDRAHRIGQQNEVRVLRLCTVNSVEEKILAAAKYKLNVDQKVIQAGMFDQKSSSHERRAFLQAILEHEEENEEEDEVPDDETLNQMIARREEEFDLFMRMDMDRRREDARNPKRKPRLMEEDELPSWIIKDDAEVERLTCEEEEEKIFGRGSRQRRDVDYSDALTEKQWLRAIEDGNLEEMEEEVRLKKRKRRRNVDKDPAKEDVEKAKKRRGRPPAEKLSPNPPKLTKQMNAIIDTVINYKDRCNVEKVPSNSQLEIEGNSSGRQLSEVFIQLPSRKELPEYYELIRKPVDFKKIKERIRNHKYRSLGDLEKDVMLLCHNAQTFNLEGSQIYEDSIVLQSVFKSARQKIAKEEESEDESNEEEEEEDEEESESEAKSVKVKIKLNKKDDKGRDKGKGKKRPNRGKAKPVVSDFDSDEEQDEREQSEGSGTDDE

The values that follow come from US20250170248A1, “SMARCA DEGRADERS AND USES THEREOF” (Kymera Therapeutics, Inc., priority 2021, published 2025).

SMILES strings stand for the structures.

T1 sequence (P51532 whole entry): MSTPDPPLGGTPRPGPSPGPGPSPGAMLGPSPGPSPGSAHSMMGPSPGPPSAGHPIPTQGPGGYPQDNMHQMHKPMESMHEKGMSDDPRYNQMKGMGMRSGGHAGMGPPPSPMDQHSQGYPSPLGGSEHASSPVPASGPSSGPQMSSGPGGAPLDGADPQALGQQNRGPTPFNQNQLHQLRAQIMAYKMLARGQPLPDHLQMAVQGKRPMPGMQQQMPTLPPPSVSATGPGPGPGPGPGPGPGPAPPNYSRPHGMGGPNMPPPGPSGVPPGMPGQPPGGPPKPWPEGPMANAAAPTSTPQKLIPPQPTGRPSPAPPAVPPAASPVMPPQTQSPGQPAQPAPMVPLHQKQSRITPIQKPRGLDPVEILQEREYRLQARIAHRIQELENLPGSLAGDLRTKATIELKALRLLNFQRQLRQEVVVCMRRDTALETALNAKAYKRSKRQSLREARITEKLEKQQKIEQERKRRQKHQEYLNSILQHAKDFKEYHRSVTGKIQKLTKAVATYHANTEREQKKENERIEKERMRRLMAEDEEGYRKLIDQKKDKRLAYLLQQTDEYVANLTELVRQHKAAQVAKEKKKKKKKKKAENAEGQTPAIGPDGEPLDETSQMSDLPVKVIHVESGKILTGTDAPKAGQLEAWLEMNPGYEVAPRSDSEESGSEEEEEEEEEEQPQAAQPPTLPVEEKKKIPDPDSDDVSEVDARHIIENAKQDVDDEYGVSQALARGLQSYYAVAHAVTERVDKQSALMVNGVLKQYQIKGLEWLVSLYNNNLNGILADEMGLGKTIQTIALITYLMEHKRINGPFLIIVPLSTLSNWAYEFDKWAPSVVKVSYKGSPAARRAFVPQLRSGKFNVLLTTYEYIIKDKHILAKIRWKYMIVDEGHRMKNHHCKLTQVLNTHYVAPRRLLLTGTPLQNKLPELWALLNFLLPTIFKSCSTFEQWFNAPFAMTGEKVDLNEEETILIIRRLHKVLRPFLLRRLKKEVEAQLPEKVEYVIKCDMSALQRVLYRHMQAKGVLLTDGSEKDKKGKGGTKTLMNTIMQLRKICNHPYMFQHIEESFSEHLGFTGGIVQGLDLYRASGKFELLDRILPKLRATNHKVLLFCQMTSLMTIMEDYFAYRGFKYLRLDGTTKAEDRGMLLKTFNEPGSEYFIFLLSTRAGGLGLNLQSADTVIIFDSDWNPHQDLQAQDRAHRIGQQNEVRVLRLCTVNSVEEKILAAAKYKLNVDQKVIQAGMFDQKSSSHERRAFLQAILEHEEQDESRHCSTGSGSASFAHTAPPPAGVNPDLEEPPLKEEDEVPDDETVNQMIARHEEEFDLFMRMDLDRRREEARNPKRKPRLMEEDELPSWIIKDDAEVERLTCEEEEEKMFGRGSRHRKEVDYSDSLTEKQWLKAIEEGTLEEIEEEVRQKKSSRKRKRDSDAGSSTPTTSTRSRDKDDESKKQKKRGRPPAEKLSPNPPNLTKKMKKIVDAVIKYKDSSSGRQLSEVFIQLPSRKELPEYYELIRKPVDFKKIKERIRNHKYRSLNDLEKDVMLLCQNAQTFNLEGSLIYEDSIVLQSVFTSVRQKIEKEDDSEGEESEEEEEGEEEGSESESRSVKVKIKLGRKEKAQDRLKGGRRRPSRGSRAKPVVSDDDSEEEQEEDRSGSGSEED

Take `Cc1ncsc1-c1ccc(CNC(=O)[C@@H]2C[C@@H](O)CN2C(=O)[C@@H](NC(=O)N2CCC3(CC2)CC(N2CCC(c4cnc(N5CCN6c7cc(-c8ccccc8O)nnc7NC[C@H]6C5)nc4)CC2)C3)C(C)(C)C)cc1` [I-67]: on SMARCA4, the Dmax was less than 50% and the DC50 was greater than 100 nM. On SMARCA2, the maximal degradation (Dmax) was less than 50%, the 50% degradation concentration (DC50) is greater than 100 nM and the “Selectivity in MV411” value was “C (C (10-100 fold))”.

For the molecule `Cc1ncsc1-c1ccc(CNC(=O)[C@@H]2C[C@@H](O)CN2C(=O)[C@@H](NC(=O)[C@H]2CCC3(CC2)C[C@H](N2CCC(c4cnc(N5CCN6c7cc(-c8ccccc8O)nnc7NC[C@H]6C5)nc4)CC2)C3)C(C)(C)C)cc1` (stereo partly drawn) [I-71], the DC50 on SMARCA4 was greater than 100 nM. At SMARCA2, the DC50 was in the range of 1 to 10 nM and the “Selectivity in MV411” value was “A (A (>500 fold))”.

In the case of `Cc1ncsc1-c1ccc(CNC(=O)[C@@H]2C[C@@H](O)CN2C(=O)[C@@H](NC(=O)C2(F)CC2)C(C)(C)C)c(OC2CCN(Cc3cnc(N4CCc5[nH]c6nnc(-c7ccccc7O)cc6c5[C@@H]4C)nc3)CC2)c1` (single isomer, unassigned) [I-43], on SMARCA4, the Dmax is less than 50% and the DC50 was greater than 100 nM. On SMARCA2, the Dmax is less than 50%, the DC50 is greater than 100 nM and the “Selectivity in MV411” value is “C (C (10-100 fold))”.

On to `Cc1ncsc1-c1ccc(CNC(=O)[C@@H]2C[C@@H](O)CN2C(=O)[C@@H](NC(=O)N2CC3(CC(N4CCN(c5ccnc(N6CCN7c8cc(-c9ccccc9O)nnc8NC[C@H]7C6)n5)CC4)C3)C2)C(C)(C)C)cc1` [I-72], for which, on SMARCA4, the Dmax was 70 to 90% and the 50% degradation concentration (DC50) fell in the range of 1 to 10 nM. Also, on SMARCA2, the Dmax was 70 to 90%, the DC50 is less than 1 nM and the “Selectivity in MV411” value was “D (D (<10 fold))”.

For the molecule `C#Cc1ccc(CNC(=O)[C@@H]2C[C@@H](O)CN2C(=O)[C@@H](NC(=O)[C@H]2CC[C@H](c3ccc(-c4cnc(N5CCN6c7cc(-c8ccccc8O)nnc7NC[C@H]6C5)nc4)cc3)CC2)C(C)(C)C)cc1` [I-23], at SMARCA4, the Dmax was less than 50% and the 50% degradation concentration (DC50) is greater than 100 nM. Further, at SMARCA2, the Dmax was in the range of 70 to 90%, the 50% degradation concentration (DC50) is 10 to 100 nM and the “Selectivity in MV411” value was “C (C (10-100 fold))”.

`Cc1ncsc1-c1ccc(CNC(=O)[C@@H]2C[C@@H](O)CN2C(=O)[C@@H](NC(=O)[C@H]2CC3(CC[C@H](N4CCC(c5cnc(N6CCN7c8cc(-c9ccccc9O)nnc8NC[C@H]7C6)nc5)CC4)CC3)C2)C(C)(C)C)cc1` (single isomer, unassigned) [I-65]: on SMARCA4, the Dmax was in the range of 70 to 90% and the DC50 fell in the range of 10 to 100 nM. Further, on SMARCA2, the maximal degradation (Dmax) was greater than 90%, the half-maximal degradation concentration (DC50) was in the range of 1 to 10 nM and the “Selectivity in MV411” value was “C (C (10-100 fold))”.

Consider `Cc1ncsc1-c1ccc(CNC(=O)[C@@H]2C[C@@H](O)CN2C(=O)[C@@H](c2cc(N3CC4(CC(N5CCC(c6cnc(N7CCN8c9cc(-c%10ccccc%10O)nnc9NC[C@H]8C7)nc6)CC5)C4)C3)no2)C(C)C)cc1` (single isomer, unassigned) [I-55], for which, at SMARCA4, the Dmax is greater than 90% and the DC50 was less than 1 nM. In addition, on SMARCA2, the Dmax was greater than 90%, the DC50 was less than 1 nM and the “Selectivity in MV411” value is on record as “D (D (<10 fold))”.

For `Cc1ncsc1-c1ccc(CNC(=O)[C@@H]2C[C@@H](O)CN2C(=O)[C@@H](NC(=O)C2(F)CC2)C(C)(C)C)c(OCCCCN2CCN(c3cnc(N4CCN5c6cc(-c7ccccc7O)nnc6NC[C@H]5C4)nc3)CC2)c1` (single isomer, unassigned) [I-45], on SMARCA4, the greatest degradation seen (Dmax) is greater than 90% and the DC50 lay in the range of 1 to 10 nM. Further, on SMARCA2, the Dmax was greater than 90%, the half-maximal degradation concentration (DC50) is less than 1 nM and the “Selectivity in MV411” value is “D (D (<10 fold))”.

For `C#Cc1ccc(CNC(=O)[C@@H]2C[C@@H](O)CN2C(=O)[C@@H](NC(=O)[C@H]2CC[C@@H](c3ccc(-c4cnc(N5CCN6c7cc(-c8ccccc8O)nnc7NC[C@H]6C5)nc4)cc3)CC2)C(C)(C)C)cc1` [I-24], at SMARCA4, the Dmax is greater than 90% and the DC50 was in the range of 1 to 10 nM. On SMARCA2, the Dmax is greater than 90%, the half-maximal degradation concentration (DC50) is less than 1 nM and the “Selectivity in MV411” value is “D (D (<10 fold))”.

For the molecule `Cc1ncsc1-c1ccc(CNC(=O)[C@@H]2C[C@@H](O)CN2C(=O)[C@H](c2cc(N3CC4(CC(N5CCC(c6cnc(N7CCN8c9cc(-c%10ccccc%10O)nnc9NC[C@H]8C7)nc6)CC5)C4)C3)no2)C(C)C)cc1` (single isomer, unassigned) [I-54], on SMARCA4, the Dmax lay within 70 to 90% and the DC50 lay within 10 to 100 nM. In addition, at SMARCA2, the Dmax was greater than 90%, the DC50 was 1 to 10 nM and the “Selectivity in MV411” value is given as “C (C (10-100 fold))”.

On to `C#Cc1ccc([C@H](C)NC(=O)[C@@H]2C[C@@H](O)CN2C(=O)[C@@H](NC(=O)[C@H]2CCC3(CC2)C[C@H](N2CCC(c4cnc(N5CCN6c7cc(-c8ccccc8O)nnc7NC[C@H]6C5)nc4)CC2)C3)C(C)(C)C)cc1` (single isomer, unassigned) [I-56], for which, on SMARCA4, the maximal degradation (Dmax) lay in the range of 50 to 70% and the DC50 is greater than 100 nM. For the same molecule, at SMARCA2, the maximal degradation (Dmax) fell in the range of 70 to 90%, the 50% degradation concentration (DC50) was 1 to 10 nM and the “Selectivity in MV411” value is listed as “A (A (>500 fold))”.

Consider `Cc1ncsc1-c1ccc(CNC(=O)[C@@H]2C[C@@H](O)CN2C(=O)[C@@H](NC(=O)C2(F)CC2)C(C)(C)C)c(OC2CCN(Cc3cnc(N4CCc5[nH]c6nnc(-c7ccccc7O)cc6c5[C@H]4C)nc3)CC2)c1` (single isomer, unassigned) [I-42], for which, at SMARCA4, the Dmax is 70 to 90% and the DC50 was greater than 100 nM. In addition, on SMARCA2, the Dmax lay within 50 to 70%, the DC50 lay in the range of 10 to 100 nM and the “Selectivity in MV411” value is given as “C (C (10-100 fold))”.

On to `CC(C)C(C(=O)N1C[C@H](O)C[C@H]1C(=O)NCc1ccc(C#N)cc1)c1cc(N2CC3(CC(N4CCC(c5cnc(N6CCN7c8cc(-c9ccccc9O)nnc8NC[C@H]7C6)nc5)CC4)C3)C2)no1` (stereo partly drawn) [I-20], for which, on SMARCA4, the maximal degradation (Dmax) is less than 50% and the half-maximal degradation concentration (DC50) was greater than 100 nM. In addition, at SMARCA2, the greatest degradation seen (Dmax) was less than 50%, the 50% degradation concentration (DC50) is greater than 100 nM and the “Selectivity in MV411” value was “C (C (10-100 fold))”.

Regarding `Cc1ncsc1-c1ccc(CNC(=O)[C@@H]2C[C@@H](O)CN2C(=O)[C@@H](NC(=O)C2(F)CC2)C(C)(C)C)c(OCCCCN2CCC(c3ccnc(N4CCN5c6cc(-c7ccccc7O)nnc6NC[C@H]5C4)n3)CC2)c1` (single isomer, unassigned) [I-46], at SMARCA4, the Dmax is greater than 90% and the DC50 fell in the range of 1 to 10 nM. At SMARCA2, the greatest degradation seen (Dmax) was greater than 90%, the DC50 was less than 1 nM and the “Selectivity in MV411” value is reported as “D (D (<10 fold))”.

As to `Cc1ncsc1-c1ccc(CNC(=O)[C@@H]2C[C@@H](O)CN2C(=O)[C@@H](NC(=O)[C@H]2CCC3(CC2)C[C@H](N2CCC(c4cnc(N5CCN6c7cc(-c8ccccc8O)nnc7NC[C@H]6C5)nc4)CC2)C3)C(C)(C)C)cc1` (single isomer, unassigned) [I-70], on SMARCA4, the Dmax was less than 50% and the half-maximal degradation concentration (DC50) was greater than 100 nM. For the same molecule, at SMARCA2, the Dmax lay within 70 to 90%, the half-maximal degradation concentration (DC50) lay within 1 to 10 nM and the “Selectivity in MV411” value is listed as “A (A (>500 fold))”.

Turning to `Cc1ncsc1-c1ccc(CNC(=O)[C@@H]2C[C@@H](O)CN2C(=O)[C@@H](NC(=O)N2CCC3(CCC(N4CCC(c5cnc(N6CCN7c8cc(-c9ccccc9O)nnc8NC[C@H]7C6)nc5)CC4)CC3)CC2)C(C)(C)C)cc1` [I-68], on SMARCA4, the maximal degradation (Dmax) was less than 50% and the DC50 is greater than 100 nM. Moreover, on SMARCA2, the maximal degradation (Dmax) is 50 to 70%, the 50% degradation concentration (DC50) is 10 to 100 nM and the “Selectivity in MV411” value was “C (C (10-100 fold))”.
